Numbers after ± are expanded uncertainties.
Test: xn = mol fraction of the nth substance listed
Details: 101 kPa, Liquid, Vibrating tube method

SMILES: C=O [methanal] + O
- mass density (291.15 K, x1 = 0.05456): 1025.9 ± 1 kg/m3
- mass density (291.15 K, x1 = 0.09849): 1045.9 ± 1 kg/m3
- mass density (291.15 K, x1 = 0.1544): 1070.2 ± 1.1 kg/m3
- mass density (291.15 K, x1 = 0.2019): 1091.8 ± 1.1 kg/m3
- mass density (291.15 K, x1 = 0.2573): 1112.8 ± 1.2 kg/m3
- mass density (298.15 K, x1 = 0.0545): 1024.6 ± 1 kg/m3
- mass density (298.15 K, x1 = 0.09849): 1044.7 ± 1 kg/m3
- mass density (298.15 K, x1 = 0.1544): 1069.9 ± 1.1 kg/m3
- mass density (298.15 K, x1 = 0.2019): 1089.4 ± 1.1 kg/m3
- mass density (298.15 K, x1 = 0.2573): 1111.3 ± 1.2 kg/m3
- mass density (313.15 K, x1 = 0.0545): 1019.6 ± 1 kg/m3
- mass density (313.15 K, x1 = 0.09849): 1039.7 ± 1 kg/m3
- mass density (313.15 K, x1 = 0.1544): 1066.9 ± 1.1 kg/m3
- mass density (313.15 K, x1 = 0.2019): 1086.8 ± 1.1 kg/m3
- mass density (313.15 K, x1 = 0.2573): 1109.9 ± 1.2 kg/m3

Reference: the NIST ThermoML archive (doi:10.1016/j.fluid.2018.07.015)
